# According to US20210346329A1, “TCA CYCLE INTERMEDIATES AND METHODS OF USE THEREOF” (IMBRIA PHARMACEUTICALS, INC., priority 2018, published 2021):
# Where “and” joins values, the source holds several entries; their conditions need not be identical. Equal values may be shown once. Read-outs that look alike come from different tables or passages of the source.
# Tests used:
# [1] = for Dose-normalized AUClast: 100 mg/kg
# From the text: Concentrations versus time data are plotted in FIG. 1 through FIG. 6.
# [2] = for Bioavailability: Oral 50 mg/kg vs IV 10 mg/kg
# Procedure: Blood samples were collected up to 8 hours post-dose, and plasma concentrations of the test articles were determined by LC-MS/MS. Pharmacokinetic parameters were determined using Phoenix WinNonlin (v8.0) software.
# Plasma samples were extracted and analyzed using the methods described in the section on Sample Extraction. All data are expressed as ng/mL of the free base. Samples that were below the limit of quantification were not used in the calculation of averages.
# Pharmacokinetic parameters were determined with Phoenix WinNonlin (v8.0) software using a non-compartmental model. The maximum plasma concentrations (C0) after IV dosing were estimated by extrapolation of the first two time points back to t=0. The maximum plasma concentration (Cmax) and the time to reach maximum plasma concentration (Tmax) after PO dosing were observed from the data. The area under the time concentration curve (AUC) was calculated using the linear trapezoidal rule with calculation to the last quantifiable data point, and with extrapolation to infinity if applicable. […] Mean residence time, MRT, was calculated by dividing the area under the moment curve (AUMC) by the AUC. Clearance (CL) was calculated from dose/AUC. Steady-state volume of distribution (Vss) was calculated from CL*MRT (mean residence time). Bioavailability was determined by dividing the individual dose-normalized PO AUClast values by the average dose-normalized IV AUClast value. Any samples below the limit of quantitation (1 ng/mL) were treated as zero for pharmacokinetic data analysis.
# Standards were prepared in Sprague-Dawley rat plasma containing sodium heparin as the anticoagulant. Working solutions were prepared in 50:50 acetonitrile:water and then added to the rat plasma to make calibration standards to final concentrations of 2000, 1000, 500, 100, 50.0, 10.0, 5.00, 2.50, and 1.00 ng/mL. Standards were treated identically to the study samples.
# Plasma samples were manually extracted using acetonitrile in a 96-well plate as outlined in Table 15.
# [3] = IV 10 mg/kg, extrapolated to t = 0, mean
# [4] = IV 10 mg/kg, individual Rat 598, 599, 600, 10 mg/kg
# [5] = Oral 50 mg/kg, individual Rat 601, 602, 603, 50 mg/kg
compound,measurement,setting,value
O=[13C](O)[13CH2][13CH2][13C](=O)O [^13C4-succinate],AUClast,"[1]; SC 100 mg/kg, mean",21630 ng·h/mL
same,AUC∞,"[1]; SC 100 mg/kg, mean",20124 ng·h/mL
same,Cmax,"[1]; SC 100 mg/kg, mean",31000 ± 7451 ng/mL
same,Dose-normalized AUC∞,"[1]; SC 100 mg/kg, mean",201 kg·ng·h/mL/mg
same,MRTlast,"[1]; SC 100 mg/kg, mean",37.7 min
same,t1/2,"[1]; SC 100 mg/kg, mean",64.2 min
same,tmax,"[1]; SC 100 mg/kg, mean",15 min
same,Bioavailability,"[1]; SC 100 mg/kg, mean, vs average IV dose-normalized AUClast",100±24.6%
same,Dose-normalized AUClast,"[1]; SC 100 mg/kg, mean",216 ± 52.9 kg·ng·h/mL/mg
same,Dose-normalized AUClast,"[1]; SC 100 mg/kg, mean, listed as 13C4-Succinate",216 kg·ng·h/mL/mg
same,Change of exposure with increasing dose,"[1]; SC 10, 50 and 100 mg/kg",nonlinear increase in exposure with increasing dose
same,Adverse reactions,"[1]; subcutaneous dosing, 10, 50 and 100 mg/kg",No adverse reactions were observed
same,Plasma concentration,"[2]; IV 10 mg/kg, 0.083 hr, individual Rat 598, 599, 600, 10 mg/kg",8050 ng/mL and 6880 ng/mL and 8410 ng/mL
same,Plasma concentration,"[2]; IV 10 mg/kg, 0.083 hr, mean",7780 ng/mL
same,Plasma concentration,"[2]; IV 10 mg/kg, 0.50 hr, individual Rat 598, 599, 600, 10 mg/kg",91.0 ng/mL and 99.8 ng/mL and 144 ng/mL
same,Plasma concentration,"[2]; IV 10 mg/kg, 0.50 hr, mean",112 ng/mL
same,Plasma concentration,"[2]; IV 10 mg/kg, 1.0 hr, individual Rat 598, 599, 600, 10 mg/kg",27.0 ng/mL and 9.43 ng/mL and 29.5 ng/mL
same,Plasma concentration,"[2]; IV 10 mg/kg, 1.0 hr, mean",22.0 ng/mL
same,Plasma concentration,"[2]; IV 10 mg/kg, 2.0 hr, individual Rat 598, 599, 600, 10 mg/kg",10.3 ng/mL and 9.06 ng/mL and 19.9 ng/mL
same,Plasma concentration,"[2]; IV 10 mg/kg, 2.0 hr, mean",13.1 ng/mL
same,Plasma concentration,"[2]; IV 10 mg/kg, 4.0 hr, individual Rat 598, 599, 600, 10 mg/kg",4.79 ng/mL and 6.25 ng/mL and 6.15 ng/mL
same,Plasma concentration,"[2]; IV 10 mg/kg, 4.0 hr, mean",5.73 ng/mL
same,Plasma concentration,"[2]; IV 10 mg/kg, 8.0 hr, individual Rat 598, 599, 600",BLOQ (BLOQ: below the limit of quantitation (1 ng/mL))
same,tmax,"[2]; IV 10 mg/kg, extrapolated to t = 0, individual Rat 598, 599, 600",0 min
same,C0,"[2]; IV 10 mg/kg, extrapolated to t = 0, individual Rat 598, 599, 600, 10 mg/kg",21947 ng/mL and 21392 ng/mL and 17434 ng/mL
same,C0,[2]; [3],20257 ng/mL
same,tmax,[2]; [3],0 min
same,AUClast,[2]; [4],2215 ng·h/mL and 1958 ng·h/mL and 2291 ng·h/mL
same,AUC∞,[2]; [4],2223 ng·h/mL and 2902 ng·h/mL and 2303 ng·h/mL
same,CL,[2]; [4],75 mL/min/kg and 83.3 mL/min/kg and 72.3 mL/min/kg
same,Dose-normalized AUClast,[2]; [4],221 kg·ng·h/mL/mg and 196 kg·ng·h/mL/mg and 229 kg·ng·h/mL/mg
same,Dose-normalized AUC∞,[2]; [4],222 kg·ng·h/mL/mg and 290 kg·ng·h/mL/mg and 230 kg·ng·h/mL/mg
same,MRTlast,[2]; [4],6.12 min and 5.69 min and 8.4 min
same,Vss,[2]; [4],0.561 L/kg and 1.65 L/kg and 0.735 L/kg
same,t1/2,[2]; [4],75.6 min and 289 min and 78 min
same,AUClast,"[2]; IV 10 mg/kg, mean",2155 ng·h/mL
same,AUC∞,"[2]; IV 10 mg/kg, mean",2176 ng·h/mL
same,CL,"[2]; IV 10 mg/kg, mean",76.8 ± 5.68 mL/min/kg
same,Dose-normalized AUC∞,"[2]; IV 10 mg/kg, mean",218 kg·ng·h/mL/mg
same,MRTlast,"[2]; IV 10 mg/kg, mean",6.78 min
same,Vss,"[2]; IV 10 mg/kg, mean",0.982 ± 0.584 L/kg
same,t1/2,"[2]; IV 10 mg/kg, mean",148 ± 122 min
same,Dose-normalized AUClast,"[2]; IV 10 mg/kg, mean, 10 mg/kg",215 kg·ng·h/mL/mg
same,Dose-normalized AUClast,"[2]; IV 10 mg/kg, mean, listed as 13C4-Succinate, 10 mg/kg",^2Bioavailability determined by dividing the individual oral dose-normalized AUClast values by the average IV dose normalized AUClast value 215 hr*kg*ng/mL/mg from previous study. hr · kg · ng/mL/mg
same,Bioavailability,"[2]; individual Rat 601, 602, 603",0.726% and 0.191% and 1.64%
same,Bioavailability,[2]; mean,0.854±0.735%
same,Plasma concentration,"[2]; Oral 50 mg/kg, 0.50 hr, individual Rat 601, 602, 603, 50 mg/kg",75.4 ng/mL and 27.8 ng/mL and 186 ng/mL
same,Plasma concentration,"[2]; Oral 50 mg/kg, 0.50 hr, mean",96.4 ng/mL
same,Plasma concentration,"[2]; Oral 50 mg/kg, 1.0 hr, individual Rat 601, 602, 603, 50 mg/kg",3.78 ng/mL and 3.00 ng/mL and 5.66 ng/mL
same,Plasma concentration,"[2]; Oral 50 mg/kg, 1.0 hr, mean",4.15 ng/mL
same,Plasma concentration,"[2]; Oral 50 mg/kg, 2.0 hr, individual Rat 601, 602, 603, 50 mg/kg",1.29 ng/mL and BLOQ (BLOQ: below the limit of quantitation (1 ng/mL)) and 2.25 ng/mL
same,Plasma concentration,"[2]; Oral 50 mg/kg, 2.0 hr, mean",1.77 ng/mL
same,Plasma concentration,"[2]; Oral 50 mg/kg, 4.0 hr, individual Rat 601, 602, 603",BLOQ (BLOQ: below the limit of quantitation (1 ng/mL))
same,Plasma concentration,"[2]; Oral 50 mg/kg, 8.0 hr, individual Rat 601, 602, 603",BLOQ (BLOQ: below the limit of quantitation (1 ng/mL))
same,tmax,"[2]; Oral 50 mg/kg, individual Rat 601, 602, 603",15 min
same,AUClast,[2]; [5],78.3 ng·h/mL and 20.6 ng·h/mL and 177 ng·h/mL
same,Cmax,[2]; [5],186 ng/mL and 37.5 ng/mL and 408 ng/mL
same,Dose-normalized AUClast,[2]; [5],1.57 kg·ng·h/mL/mg and 0.411 kg·ng·h/mL/mg and 3.54 kg·ng·h/mL/mg
same,MRTlast,[2]; [5],22.9 min and 24.2 min and 22.7 min
same,AUClast,"[2]; Oral 50 mg/kg, mean",92.0 ng·h/mL
same,Cmax,"[2]; Oral 50 mg/kg, mean",211 ± 186 ng/mL
same,MRTlast,"[2]; Oral 50 mg/kg, mean",23.3 min
same,tmax,"[2]; Oral 50 mg/kg, mean",15 min
same,Dose-normalized AUClast,"[2]; Oral 50 mg/kg, mean, 50 mg/kg",1.84 ± 1.58 kg·ng·h/mL/mg and 1.84 kg·ng·h/mL/mg
same,Time post dosing at which maximum plasma concentrations were observed,[2]; PO 50 mg/kg,15 min
same,Adverse reactions,[2]; intravenous (10 mg/kg) and oral (50 mg/kg) dosing,No adverse reactions were observed
